According to ChEMBL document CHEMBL2303647, “Data associated with the publication PLoS ONE, 8(3), e57888, (2013) PMID: 23505445. Compounds: GSK PKIS; Assays: NIH NCATS”:

Tests used:
[1] = target: Luciferin 4-monooxygenase (Photinus pyralis, UniProt P08659)
Description: GSK_PKIS: Inhibition of Firefly Luciferase (Data from PubChem: AID 652016) [NIH NCATS]

[2] = target: T1, Coelenterazine h 2-monooxygenase (Renilla reniformis, UniProt P27652)
T1 sequence (P27652 whole entry): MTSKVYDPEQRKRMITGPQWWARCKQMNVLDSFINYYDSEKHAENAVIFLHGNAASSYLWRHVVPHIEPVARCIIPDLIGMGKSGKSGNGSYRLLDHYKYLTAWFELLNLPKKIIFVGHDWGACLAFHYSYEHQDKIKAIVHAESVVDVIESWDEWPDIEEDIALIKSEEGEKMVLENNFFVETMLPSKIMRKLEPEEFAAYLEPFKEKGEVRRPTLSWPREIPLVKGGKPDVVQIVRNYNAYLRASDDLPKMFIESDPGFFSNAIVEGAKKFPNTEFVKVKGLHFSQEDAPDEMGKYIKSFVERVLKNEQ
Description: GSK_PKIS: Inhibition of Sea Pansy Luciferase (Data from PubChem: AID 652015) [NIH NCATS]

Luciferin 4-monooxygenase, sequence (P08659 whole entry): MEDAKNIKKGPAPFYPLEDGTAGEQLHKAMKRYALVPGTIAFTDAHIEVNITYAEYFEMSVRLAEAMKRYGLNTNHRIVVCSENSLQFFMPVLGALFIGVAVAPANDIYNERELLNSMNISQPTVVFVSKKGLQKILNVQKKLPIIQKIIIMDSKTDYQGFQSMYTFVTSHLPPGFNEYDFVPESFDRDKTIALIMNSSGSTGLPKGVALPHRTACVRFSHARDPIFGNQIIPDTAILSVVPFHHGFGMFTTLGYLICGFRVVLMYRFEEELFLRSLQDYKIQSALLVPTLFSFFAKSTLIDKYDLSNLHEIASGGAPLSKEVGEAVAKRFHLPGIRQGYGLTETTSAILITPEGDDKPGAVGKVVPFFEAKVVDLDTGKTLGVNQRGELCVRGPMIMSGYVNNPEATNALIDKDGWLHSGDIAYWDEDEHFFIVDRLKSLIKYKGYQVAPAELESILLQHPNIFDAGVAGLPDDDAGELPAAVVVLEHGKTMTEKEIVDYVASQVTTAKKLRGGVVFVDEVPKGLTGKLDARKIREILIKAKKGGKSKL

AC50 ([1]; read-out: AC50) | AC50 ([2]; read-out: AC50) | Compound | AC50 [1] | AC50 [2]
 |  | COc1cc(Nc2ncc(-c3ccccc3)o2)cc(OC)c1OC [GW627512B] | Phenotype: Inactive; Curve_Description: None | Phenotype: Inactive; Curve_Description: None
1.03 µM |  | Cl.N#Cc1cccc(Nc2ncc(-c3ccccc3)o2)c1 [GW627834A] |  | Phenotype: Inactive; Curve_Description: None
6.51 µM |  | COc1cc(Nc2ncc(-c3ccccc3)o2)cc(OC)c1 [GW631581B] |  | Phenotype: Inactive; Curve_Description: None
0.58 µM |  | Cc1cccc(Nc2ncc(-c3ccccc3)o2)c1 [GW632046X] |  | Phenotype: Inactive; Curve_Description: None
 |  | COc1ccc(COc2ccc(Cc3cnc(N)nc3N)cc2OC)cc1 [GW632580X] | Phenotype: Inactive; Curve_Description: None | Phenotype: Inactive; Curve_Description: None
 |  | Cl.c1ccc(Oc2ccc(Nc3ncc(-c4ccccc4)o3)cc2)cc1 [GW641155A] | Phenotype: Inactive; Curve_Description: None | Phenotype: Inactive; Curve_Description: None
 | 20.6 µM | COc1ccc(-c2coc3ncnc(N)c23)cc1 [GW642125X] | Phenotype: Inactive; Curve_Description: None | 
6.51 µM |  | COc1ccc(-c2cc3c(N)ncnc3o2)cc1 [GW642138X] |  | Phenotype: Inactive; Curve_Description: None
29.1 µM |  | COc1cc(C=NNc2ncnc3c2cnn3Cc2ccccc2)ccc1O [GW643971X] |  | Phenotype: Activator; Curve_Description: None
5.8 µM |  | COc1cc(/C=N/Nc2ncnc3c2cnn3C(C)C)ccc1O [GW644007X] |  | Phenotype: Inactive; Curve_Description: None
 |  | Fc1cccc(COc2ccc(Nc3ncncc3C#Cc3ccccc3)cc2Cl)c1 [GW651576X] | Phenotype: Inactive; Curve_Description: None | Phenotype: Inactive; Curve_Description: None
 | 32.6 µM | CCS(=O)(=O)c1ccc(OC)c(Nc2nccc(N(C)c3ccc4c(C)n[nH]c4c3)n2)c1.Cl [GW654652C] | Phenotype: Inactive; Curve_Description: None | 
16.3 µM |  | COC(=O)Nc1nc2cc(Oc3cccc(NC(=O)Nc4cc(C(F)(F)F)ccc4F)c3)ccc2[nH]1.Cl [GW659386A] |  | Phenotype: Inactive; Curve_Description: None
20.6 µM |  | Nc1ccc(C#Cc2cncnc2Nc2ccc(OCc3cccc(F)c3)c(Cl)c2)cc1 [GW659893X] |  | Phenotype: Inactive; Curve_Description: None
32.6 µM |  | CCc1cccc(NC(=O)Nc2ccc(Oc3ccc4nc(NC(=O)OC)[nH]c4c3)cc2)c1 [GW673715X] |  | Phenotype: Inactive; Curve_Description: None
 |  | CCS(=O)(=O)c1ccc(OC)c(Nc2ncc(-c3cccc(-c4ccccc4F)c3)o2)c1 [GW678313X] | Phenotype: Inactive; Curve_Description: None | Phenotype: Inactive; Curve_Description: None
16.3 µM |  | COc1ccc(-c2cc(-c3c[nH]nc3-c3ccccn3)ccn2)cc1 [GW679410X] |  | Phenotype: Inactive; Curve_Description: None
 |  | COC(=O)Nc1nc2ccc(S(=O)(=O)c3ccc(NC(=O)Nc4cc(C(F)(F)F)ccc4F)cc3)cc2[nH]1.Cl [GW680908A] | Phenotype: Inactive; Curve_Description: None | Phenotype: Inactive; Curve_Description: None
 |  | Fc1ccc(-c2cc(-c3c[nH]nc3-c3ccccn3)ccn2)cc1 [GW680975X] | Phenotype: Inactive; Curve_Description: None | Phenotype: Inactive; Curve_Description: None
 |  | FC(F)(F)CNc1nccc(-c2cnn3ncccc23)n1 [GW683003X] | Phenotype: Activator; Curve_Description: None | Phenotype: Inactive; Curve_Description: None
41.1 µM |  | c1cnn2ncc(-c3ccnc(NCCCN4CCOCC4)n3)c2c1 [GW683109X] |  | Phenotype: Inactive; Curve_Description: None
20.6 µM |  | Cl.O=C(Nc1ccc(Oc2ccc3[nH]c(NC(=O)c4ccco4)nc3c2)cc1)Nc1cc(C(F)(F)F)ccc1F [GW683134A] |  | Phenotype: Inactive; Curve_Description: None

AC50 ([1]; read-out: AC50) | AC50 ([2]; read-out: AC50) | Compound | AC50 [1] | AC50 [2]
 |  | CCc1nn2ncccc2c1-c1ccnc(NC2CC2)n1 [GW683768X] | Phenotype: Inactive; Curve_Description: None | Phenotype: Inactive; Curve_Description: None
 |  | Fc1cccc(COc2ccc(Nc3ncnc4sc(-c5cccs5)cc34)cc2Cl)c1 [GW684626B] | Phenotype: Inactive; Curve_Description: None | Phenotype: Inactive; Curve_Description: None
32.6 µM |  | Nc1nc(-c2ccccn2)c(-c2ccc3ncccc3n2)s1 [GW693481X] |  | Phenotype: Inactive; Curve_Description: None
 |  | Cl.Fc1cccc(COc2ccc(Nc3ncnc4cc(-c5ccc[nH]5)sc34)cc2Cl)c1 [GW693881A] | Phenotype: Inactive; Curve_Description: None | Phenotype: Inactive; Curve_Description: None
13 µM |  | COC(=O)Nc1nc2ccc(Oc3ccc(NC(=O)Nc4cc(C(F)(F)F)ccc4F)cc3)cc2s1.Cl [GW693917A] |  | Phenotype: Inactive; Curve_Description: None
 |  | COC(=O)Nc1nc2cc(Oc3ccc(NC(=O)Nc4cccc(Br)c4)cc3)ccc2[nH]1.Cl [GW694234A] | Phenotype: Inactive; Curve_Description: None | Phenotype: Inactive; Curve_Description: None
14.6 µM |  | COC(=O)Nc1nc2cc(Oc3ccc(NC(=O)Nc4ccccc4)cc3)ccc2[nH]1.Cl [GW694590A] |  | Phenotype: Inactive; Curve_Description: None
 |  | c1ccc(-c2n[nH]cc2-c2ccnc(-c3ccc(OCCN4CCOCC4)cc3)c2)nc1 [GW695874X] | Phenotype: Inactive; Curve_Description: None | Phenotype: Inactive; Curve_Description: None
 | 23.1 µM | CN1CCN(CCCNc2nc3ccc(Oc4ccc(NC(=O)Nc5cc(C(F)(F)F)ccc5F)cc4)cc3[nH]2)CC1.Cl [GW700494A] | Phenotype: Inactive; Curve_Description: None | 
 |  | COc1ccc(CNC(=O)c2ccc(-c3cc(-c4nnc(C)o4)ccc3C)cc2)cc1 [GW701032X] | Phenotype: Inactive; Curve_Description: None | Phenotype: Inactive; Curve_Description: None
0.116 µM | 41.1 µM | COC(=O)Nc1nc2cc(Oc3ccc(NC(=O)Nc4cccc(C(=O)O)c4)cc3)ccc2[nH]1 [GW701427A] |  | 
 |  | CC(=O)Nc1cccc(C#Cc2cncnc2Nc2ccc(OCc3cccc(F)c3)c(Cl)c2)c1 [GW703087X] | Phenotype: Inactive; Curve_Description: None | Phenotype: Inactive; Curve_Description: None
4.61 µM |  | c1cc(-c2cnn3nc(N4CCOCC4)ccc23)nc(NC2CC2)n1 [GW708336X] |  | Phenotype: Inactive; Curve_Description: None
 |  | Cc1nnc(-c2ccc(C)c(-c3ccc(C(=O)NCc4ccc(Cl)cc4)cc3)c2)o1 [GW708893X] | Phenotype: Inactive; Curve_Description: None | Phenotype: Inactive; Curve_Description: None
 |  | Cl.O=C(Nc1ccc(Oc2ccc3[nH]c(NC(=O)c4ccccc4)nc3c2)cc1)Nc1cc(C(F)(F)F)ccc1F [GW709042A] | Phenotype: Inactive; Curve_Description: None | Phenotype: Inactive; Curve_Description: None
 |  | c1ccc(-c2n[nH]cc2-c2ccnc(-c3ccc(OCCn4ccnc4)cc3)c2)nc1 [GW711782X] | Phenotype: Inactive; Curve_Description: None | Phenotype: Inactive; Curve_Description: None
0.73 µM |  | Cl.NC(=O)c1cccc(Nc2nccc(Nc3cccc(F)c3)n2)c1 [GW759710A] |  | Phenotype: Inactive; Curve_Description: None
 |  | COc1ccc(-c2oc3ncnc(N)c3c2-c2ccc(NC(=O)Nc3cc(C(F)(F)F)ccc3F)cc2)cc1.Cl [GW768505A] | Phenotype: Inactive; Curve_Description: None | Phenotype: Inactive; Curve_Description: None
 |  | Cc1nn(C)c2cc(N(C)c3ccnc(Nc4cccc(S(N)(=O)=O)c4)n3)ccc12.Cl [GW770220A] | Phenotype: Inactive; Curve_Description: None | Phenotype: Inactive; Curve_Description: None
 |  | Cl.Nc1ncnc2occ(-c3ccc(NC(=O)Nc4cc(C(F)(F)F)ccc4F)cc3)c12 [GW770249A] | Phenotype: Inactive; Curve_Description: None | Phenotype: Inactive; Curve_Description: None
 |  | Nc1ncnc2occ(-c3ccc(NC(=O)Nc4cc(C(F)(F)F)ccc4F)cc3)c12 [GW770249X] | Phenotype: Inactive; Curve_Description: None | Phenotype: Inactive; Curve_Description: None
13 µM | 18.3 µM | Cc1c2ccc(N(C)c3ccnc(Nc4cccc(S(N)(=O)=O)c4)n3)cc2nn1C [GW771127A] |  | 

Compound | AC50 ([1]; read-out: AC50) | AC50 ([2]; read-out: AC50) | AC50 [1] | AC50 [2]
Cl.O=S(=O)(CCNCc1ccc(-c2ccc3ncnc(Nc4ccc(OCc5cccc(F)c5)c(Cl)c4)c3c2)o1)c1ccccc1 [GW633459A] | 29.1 µM |  |  | Phenotype: Inactive; Curve_Description: None
C#Cc1cccc(Nc2ncnc3ccc(OCCCCNCCS(C)(=O)=O)cc23)c1 [GW680191X] |  | 29.1 µM | Phenotype: Inactive; Curve_Description: None | 
CC(C)c1ccc(-c2cc(-c3c[nH]nc3-c3ccccn3)ccn2)cc1 [GW682841X] |  | 1.46 µM | Phenotype: Activator; Curve_Description: None | 
Cc1nnc(-c2cccc(-c3ccc(C(=O)NCC4CC4)cc3)c2)o1 [GW734508X] |  | 36.6 µM | Phenotype: Inactive; Curve_Description: None | 
Cc1ccc(NC(=O)c2ccoc2)cc1-c1ccc(C(=O)NCC2CC2)cc1 [GW743024X] | 41.1 µM |  |  | Phenotype: Inactive; Curve_Description: None
Cc1ccc(NC(=O)c2ccnc(N3CCCC3)c2)cc1-c1ccc(C(=O)NCC2CC2)cc1 [GW769076X] |  | 29.1 µM | Phenotype: Inactive; Curve_Description: None | 
